From the NIST ThermoML archive (doi:10.1007/s10765-009-0566-6)

What was measured:
[1] = cn = amount concentration of the nth substance listed, in mol/dm3; conditions: 101 kPa, Liquid, Direct current cell with electrodes
[2] = refractive index (Na D-line) (dimensionless); mn = molality of the nth substance listed, in mol/kg; conditions: 101 kPa, Liquid, Standard Abbe refractometry

CCCCCn1cc[n+](C)c1.[Cl-] [1-methyl-3-pentylimidazolium chloride] + O
Conditions | molar conductivity [S·m2/mol] | refractive index
[1], 298.15 K, c1 = 0.000693 | 0.00871 | –
[1], 298.15 K, c1 = 0.001453 | 0.00866 | –
[1], 298.15 K, c1 = 0.002097 | 0.00863 | –
[1], 298.15 K, c1 = 0.002732 | 0.00862 | –
[1], 298.15 K, c1 = 0.004637 | 0.0086 | –
[1], 298.15 K, c1 = 0.006272 | 0.00858 | –
[1], 298.15 K, c1 = 0.007754 | 0.00852 | –
[1], 298.15 K, c1 = 0.01023 | 0.00841 | –
[1], 298.15 K, c1 = 0.01283 | 0.00832 | –
[1], 298.15 K, c1 = 0.01775 | 0.00817 | –
[1], 298.15 K, c1 = 0.02186 | 0.00804 | –
[1], 298.15 K, c1 = 0.02704 | 0.00793 | –
[1], 298.15 K, c1 = 0.03205 | 0.00783 | –
[1], 298.15 K, c1 = 0.0368 | 0.0078 | –
[1], 298.15 K, c1 = 0.04132 | 0.00772 | –
[1], 298.15 K, c1 = 0.04635 | 0.00763 | –
[1], 298.15 K, c1 = 0.05182 | 0.00752 | –
[1], 308.15 K, c1 = 0.000752 | 0.00993 | –
[1], 308.15 K, c1 = 0.001643 | 0.00975 | –
[1], 308.15 K, c1 = 0.002686 | 0.00964 | –
[1], 308.15 K, c1 = 0.00347 | 0.00956 | –
[1], 308.15 K, c1 = 0.004191 | 0.00959 | –
[1], 308.15 K, c1 = 0.005081 | 0.00953 | –
[1], 308.15 K, c1 = 0.006215 | 0.00945 | –
[1], 308.15 K, c1 = 0.007646 | 0.00937 | –
[1], 308.15 K, c1 = 0.009172 | 0.00927 | –
[1], 308.15 K, c1 = 0.01102 | 0.00917 | –
[1], 308.15 K, c1 = 0.01269 | 0.00912 | –
[1], 308.15 K, c1 = 0.01447 | 0.00906 | –
[1], 308.15 K, c1 = 0.01625 | 0.00902 | –
[1], 308.15 K, c1 = 0.01799 | 0.00895 | –
[1], 308.15 K, c1 = 0.01986 | 0.00889 | –
[1], 308.15 K, c1 = 0.02253 | 0.00881 | –
[1], 308.15 K, c1 = 0.02549 | 0.00873 | –
[1], 308.15 K, c1 = 0.02884 | 0.00863 | –
[1], 308.15 K, c1 = 0.03245 | 0.00856 | –
[1], 308.15 K, c1 = 0.0363 | 0.00846 | –
[1], 308.15 K, c1 = 0.04073 | 0.00837 | –
[1], 308.15 K, c1 = 0.04603 | 0.0082 | –
[1], 308.15 K, c1 = 0.04936 | 0.00814 | –
[1], 318.15 K, c1 = 0.000273 | 0.0115 | –
[1], 318.15 K, c1 = 0.000592 | 0.0114 | –
[1], 318.15 K, c1 = 0.001207 | 0.0112 | –
[1], 318.15 K, c1 = 0.002002 | 0.0111 | –
[1], 318.15 K, c1 = 0.002757 | 0.011 | –
[1], 318.15 K, c1 = 0.003483 | 0.0108 | –
[1], 318.15 K, c1 = 0.004458 | 0.0107 | –
[1], 318.15 K, c1 = 0.005601 | 0.0106 | –
[1], 318.15 K, c1 = 0.007348 | 0.0105 | –
[1], 318.15 K, c1 = 0.008904 | 0.0104 | –
[1], 318.15 K, c1 = 0.01052 | 0.0103 | –
[1], 318.15 K, c1 = 0.0124 | 0.0102 | –
[1], 318.15 K, c1 = 0.01478 | 0.0101 | –
[1], 318.15 K, c1 = 0.01661 | 0.01 | –
[1], 318.15 K, c1 = 0.0196 | 0.00989 | –
[1], 318.15 K, c1 = 0.02241 | 0.00978 | –
[1], 318.15 K, c1 = 0.02545 | 0.00966 | –
[1], 318.15 K, c1 = 0.02897 | 0.00953 | –
[1], 318.15 K, c1 = 0.03318 | 0.00939 | –
[1], 318.15 K, c1 = 0.03779 | 0.00924 | –
[1], 328.15 K, c1 = 0.000588 | 0.0119 | –
[1], 328.15 K, c1 = 0.001076 | 0.0118 | –
[1], 328.15 K, c1 = 0.001612 | 0.0117 | –
[1], 328.15 K, c1 = 0.002109 | 0.0116 | –
[1], 328.15 K, c1 = 0.002949 | 0.0116 | –
[1], 328.15 K, c1 = 0.003721 | 0.0116 | –
[1], 328.15 K, c1 = 0.004608 | 0.0115 | –
[1], 328.15 K, c1 = 0.005897 | 0.0113 | –
[1], 328.15 K, c1 = 0.007087 | 0.0111 | –
[1], 328.15 K, c1 = 0.008632 | 0.011 | –
[1], 328.15 K, c1 = 0.01034 | 0.0108 | –
[1], 328.15 K, c1 = 0.01229 | 0.0106 | –
[1], 328.15 K, c1 = 0.01539 | 0.0105 | –
[1], 328.15 K, c1 = 0.01788 | 0.0104 | –
[1], 328.15 K, c1 = 0.02011 | 0.0103 | –
[1], 328.15 K, c1 = 0.02273 | 0.0101 | –
[2], 298.15 K, m1 = 0.014 | – | 1.3331
[2], 298.15 K, m1 = 0.0263 | – | 1.3334
[2], 298.15 K, m1 = 0.0391 | – | 1.3338
[2], 298.15 K, m1 = 0.0518 | – | 1.3342
[2], 298.15 K, m1 = 0.0634 | – | 1.3344
[2], 298.15 K, m1 = 0.084 | – | 1.3351
[2], 298.15 K, m1 = 0.1007 | – | 1.3358
[2], 298.15 K, m1 = 0.1369 | – | 1.3367
[2], 298.15 K, m1 = 0.1784 | – | 1.3379
[2], 298.15 K, m1 = 0.2198 | – | 1.3392
[2], 298.15 K, m1 = 0.2765 | – | 1.3408
[2], 298.15 K, m1 = 0.3517 | – | 1.343
[2], 298.15 K, m1 = 0.4043 | – | 1.3443
[2], 298.15 K, m1 = 0.5014 | – | 1.347
[2], 298.15 K, m1 = 0.5758 | – | 1.3489
[2], 298.15 K, m1 = 0.8464 | – | 1.3558
[2], 298.15 K, m1 = 1.002 | – | 1.3596
[2], 298.15 K, m1 = 1.376 | – | 1.3679
[2], 298.15 K, m1 = 1.797 | – | 1.3764
[2], 308.15 K, m1 = 0.014 | – | 1.3318
[2], 308.15 K, m1 = 0.0263 | – | 1.3321
[2], 308.15 K, m1 = 0.0391 | – | 1.3324
[2], 308.15 K, m1 = 0.0518 | – | 1.3328
[2], 308.15 K, m1 = 0.0634 | – | 1.3331
[2], 308.15 K, m1 = 0.084 | – | 1.3339
[2], 308.15 K, m1 = 0.1007 | – | 1.3344
[2], 308.15 K, m1 = 0.1369 | – | 1.3357
[2], 308.15 K, m1 = 0.1784 | – | 1.3367
[2], 308.15 K, m1 = 0.2198 | – | 1.3378
[2], 308.15 K, m1 = 0.2765 | – | 1.3397
[2], 308.15 K, m1 = 0.3517 | – | 1.3416
[2], 308.15 K, m1 = 0.4043 | – | 1.343
[2], 308.15 K, m1 = 0.5014 | – | 1.3457
[2], 308.15 K, m1 = 0.5758 | – | 1.3475
[2], 308.15 K, m1 = 0.8464 | – | 1.3547
[2], 308.15 K, m1 = 1.002 | – | 1.3579
[2], 308.15 K, m1 = 1.376 | – | 1.3658
[2], 308.15 K, m1 = 1.797 | – | 1.3745
[2], 318.15 K, m1 = 0.014 | – | 1.3302
[2], 318.15 K, m1 = 0.0263 | – | 1.3305
[2], 318.15 K, m1 = 0.0391 | – | 1.3308
[2], 318.15 K, m1 = 0.0518 | – | 1.3313
[2], 318.15 K, m1 = 0.0634 | – | 1.3316
[2], 318.15 K, m1 = 0.084 | – | 1.3322
[2], 318.15 K, m1 = 0.1007 | – | 1.3327
[2], 318.15 K, m1 = 0.1369 | – | 1.3336
[2], 318.15 K, m1 = 0.1784 | – | 1.3349
[2], 318.15 K, m1 = 0.2198 | – | 1.3359
[2], 318.15 K, m1 = 0.2765 | – | 1.3377
[2], 318.15 K, m1 = 0.3517 | – | 1.3397
[2], 318.15 K, m1 = 0.4043 | – | 1.3411
[2], 318.15 K, m1 = 0.5014 | – | 1.3437
[2], 318.15 K, m1 = 0.5758 | – | 1.3457
[2], 318.15 K, m1 = 0.8464 | – | 1.3523
[2], 318.15 K, m1 = 1.002 | – | 1.3557
[2], 318.15 K, m1 = 1.376 | – | 1.3639
[2], 318.15 K, m1 = 1.797 | – | 1.3721
[2], 328.15 K, m1 = 0.014 | – | 1.3282
[2], 328.15 K, m1 = 0.0263 | – | 1.3284
[2], 328.15 K, m1 = 0.0391 | – | 1.3288
[2], 328.15 K, m1 = 0.0518 | – | 1.3291
[2], 328.15 K, m1 = 0.0634 | – | 1.3294
[2], 328.15 K, m1 = 0.084 | – | 1.3305
[2], 328.15 K, m1 = 0.1007 | – | 1.3309
[2], 328.15 K, m1 = 0.1369 | – | 1.3316
[2], 328.15 K, m1 = 0.1784 | – | 1.3328
[2], 328.15 K, m1 = 0.2198 | – | 1.3339
[2], 328.15 K, m1 = 0.2765 | – | 1.3356
[2], 328.15 K, m1 = 0.3517 | – | 1.3376
[2], 328.15 K, m1 = 0.4043 | – | 1.3389
[2], 328.15 K, m1 = 0.5014 | – | 1.3419
[2], 328.15 K, m1 = 0.5758 | – | 1.344
[2], 328.15 K, m1 = 0.8464 | – | 1.3505
[2], 328.15 K, m1 = 1.002 | – | 1.3537
[2], 328.15 K, m1 = 1.376 | – | 1.3619
[2], 328.15 K, m1 = 1.797 | – | 1.3697
